US4058608A, “Method of treating fungus-infected plants with phenylazocyanoacetic ester derivatives” (Chinoin Gyogyszer es Vegyeszeti Termekek Gyara RT, priority 1974, dated 1977)

Columns and labels:
toxicity tests on mice = assay type: in vivo; conditions: mouse, in vivo, ip, intraperitoneal administration, calculated from LD0 and LD100
Method: (§1) 5, 10 or 20% of active agent were suspended in 0.1% agar gel, and the obtained homogeneous suspensions were injected intraperitoneally into mice, or were administered into the stomach of the animals via a stomach tube. The animals were kept under observation for one week after a single treatment, and the toxicity data were evaluated on the basis of the percentage deaths observed in this period.

mice = assay: toxicity tests on mice; assay type: in vivo; conditions: single treatment, one week observation
Method: as §1

[1] = oral administration (stomach tube)

## CCOC(=O)C(C#N)N=Nc1ccc(Cl)cc1 (centres unmarked) [C2 H5 -- H H Cl]
Toxicity tests on mice
  LD50 at 168 h: 400 mg/kg
mice; intraperitoneal administration
  LD0: 200 mg/kg
  LD100: 600 mg/kg
mice; [1]
  LD0: 6000 mg/kg
  LD100: 6000 mg/kg

## CC(C)OC(=O)C(C#N)N=Nc1cccc(Cl)c1 (centres unmarked) [i-C3 H7 -- H Cl H]
Toxicity tests on mice
  LD50 at 168 h: 500 mg/kg
mice; intraperitoneal administration
  LD0: 300 mg/kg
  LD100: 800 mg/kg
mice; [1]
  LD0: 6000 mg/kg
  LD100: 6000 mg/kg

## CCCCOC(=O)C(C#N)N=Nc1ccc([N+](=O)[O-])cc1 (centres unmarked) [n-C4 H9 -- H H NO2 --]
Toxicity tests on mice
  LD50 at 168 h: 600 mg/kg
mice; intraperitoneal administration
  LD0: 400 mg/kg
  LD100: 800 mg/kg
mice; [1]
  LD0: 6000 mg/kg
  LD100: 6000 mg/kg

## CCCCOC(=O)C(C#N)N=Nc1ccc(Cl)cc1 (centres unmarked) [n-C4 H9 -- H H Cl]
Toxicity tests on mice
  LD50 at 168 h: 800 mg/kg
mice; intraperitoneal administration
  LD0: 500 mg/kg
  LD100: 1000 mg/kg
mice; [1]
  LD0: 6000 mg/kg
  LD100: 6000 mg/kg

## CCCCOC(=O)C(C#N)N=Nc1cccc([N+](=O)[O-])c1 (centres unmarked) [n-C4 H9 -- H NO2 -- H]
Toxicity tests on mice
  LD50 at 168 h: 600 mg/kg
mice; intraperitoneal administration
  LD0: 400 mg/kg
  LD100: 800 mg/kg
mice; [1]
  LD0: 6000 mg/kg
  LD100: 6000 mg/kg

## CCOC(=O)C(C#N)N=Nc1cccc(Cl)c1 (centres unmarked) [C2 H5 -- H Cl H]
Toxicity tests on mice
  LD50 at 168 h: 400 mg/kg
mice; intraperitoneal administration
  LD0: 200 mg/kg
  LD100: 600 mg/kg
mice; [1]
  LD0: 6000 mg/kg
  LD100: 6000 mg/kg

## CC(C)OC(=O)C(C#N)N=Nc1ccc(Cl)cc1 (centres unmarked) [i-C3 H7 -- H H Cl]
Toxicity tests on mice
  LD50 at 168 h: 600 mg/kg
mice; intraperitoneal administration
  LD0: 400 mg/kg
  LD100: 1000 mg/kg
mice; [1]
  LD0: 6000 mg/kg
  LD100: 6000 mg/kg

## CCCOC(=O)C(C#N)N=Nc1ccc(Cl)cc1 (centres unmarked) [n-C3 H7 -- H H Cl]
Toxicity tests on mice
  LD50 at 168 h: 600 mg/kg
mice; intraperitoneal administration
  LD0: 400 mg/kg
  LD100: 1000 mg/kg
mice; [1]
  LD0: 6000 mg/kg
  LD100: 6000 mg/kg

## CCCOC(=O)C(C#N)N=Nc1cccc(Cl)c1 (centres unmarked) [n-C3 H7 -- H Cl H]
Toxicity tests on mice
  LD50 at 168 h: 500 mg/kg
mice; intraperitoneal administration
  LD0: 300 mg/kg
  LD100: 800 mg/kg
mice; [1]
  LD0: 6000 mg/kg
  LD100: 6000 mg/kg

## CCCCOC(=O)C(C#N)N=Nc1cccc(Cl)c1 (centres unmarked) [n-C4 H9 -- H Cl H]
Toxicity tests on mice
  LD50 at 168 h: 800 mg/kg
mice; intraperitoneal administration
  LD0: 500 mg/kg
  LD100: 1000 mg/kg
mice; [1]
  LD0: 6000 mg/kg
  LD100: 6000 mg/kg
